# Measured values published in patent publication US5482945A, “Innovative technique for immunosuppression involving administration of rapamycin loaded formed blood elements” (American Home Products Corporation, priority 1992, dated 1996).
# Where two headings read alike, the source gives them in different places.
# Columns and labels:
# red blood cells [1] = conditions: cited from earlier work
# [2] = system: transplanted tissue or organ; conditions: parenteral administration to donor before transplant; cited from earlier work
# T-lymphocytes = conditions: cited from earlier work
# [3] = system: FK-506 binding protein (FKBP); conditions: cited from earlier work
# [4] = system: peripheral blood mononuclear cells and erythrocytes; conditions: cited from earlier work
# red blood cells [5] = conditions: cited from earlier work; remark: listed apart in the source
# adjuvant arthritis = conditions: rats; cited from earlier work
# FKBP = assay: Binding of rapamycin to FKBP in formed blood elements (erythrocytes)
# transplant rejection = conditions: cited from earlier work
# [6] = system: lymphatic leukemia, colon and mammary cancers, melanocarcinoma and ependymoblastoma; conditions: cited from earlier work
# [7] = Equilibrium of rapamycin between formed blood elements (FBE), whole blood and plasma in human blood; format: in vitro ADME; conditions: for Kp: formed blood elements, read-out: FBE to plasma ratio
# Procedure: (§1) In human blood at rapamycin concentrations between 76 and 189 ng/ml, the whole blood and FBE to plasma ratios after 30 minutes incubation at 37° C. were 12±2 and 23.7±3.9 respectively. Similarly, at a concentration of 482 ng/ml, the ratios were 1.1 and 1.3 respectively. The ratios of whole blood to plasma concentrations in monkeys receiving rapamycin was 10±6 and in humans the ratio was 12±2, and indication that a species difference exists between primates and other mammals.
# graft rejection = conditions: donor pretreatment intravenously, rats; cited from earlier work
# mouse T-cells = conditions: combination with Cyclosporin A; ionomycin + PMA stimulation; cited from earlier work
# [8] = system: experimental allergic encephalomyolitis; conditions: rats; cited from earlier work
# [9] = Whole blood to plasma concentration ratio in monkeys receiving rapamycin; format: in vivo; conditions: monkey, read-out: ratio of whole blood to plasma concentrations
# Procedure: as §1
# [10] = system: humoral (IgE-like) antibodies; conditions: rats, albumin allergic challenge; cited from earlier work
# erythrocytes = assay: Hemolysis by rapamycin; format: cell-based
# [11] = system: restenosis (smooth muscle cell proliferation and internal thickening following vascular injury); conditions: cited from earlier work
# [12] = Equilibrium of rapamycin between formed blood elements (FBE), whole blood and plasma in rat blood; format: in vitro ADME; conditions: for Kp: formed blood elements, read-out: FBE to plasma ratio
# Procedure: In human blood, erythrocytes comprise about 85 to 90 percent of the formed blood elements (microscopically visible). Human whole blood is comprised of about 46% formed blood elements and 54% plasma. Equilibrium of rapamycin between the rapamycin-loaded formed blood elements (FBE) and the plasma is quickly established and is seen to be species dependent. In rat blood containing rapamycin at a concentration of 38 ng/ml, the whole blood and FBE to plasma ratios were 1.3 and 1.7 respectively and at a concentration of 200 ng/ml the ratios were 0.8 and 0.5 respectively.
# [13] = Whole blood to plasma concentration ratio in humans receiving rapamycin; format: in vivo; conditions: human, read-out: ratio of whole blood to plasma concentrations
# Procedure: as §1
# [14] = rapamycin 76 to 189 ng/ml, 30 minutes incubation at 37° C.
compound,measurement,setting,value
C[C@@H]1[C@H](O)[C@@H](C)/C=C/C=C/C=C/C=C/C=C/C=C/C=C/[C@H](O[C@@H]2O[C@H](C)[C@@H](O)[C@H](N)[C@@H]2O)C[C@@H]2O[C@](O)(C[C@@H](O)C[C@@H](O)[C@H](O)CC[C@@H](O)C[C@@H](O)CC(=O)O[C@H]1C)C[C@H](O)[C@H]2C(=O)O [Amphotericin B],effect on sterols and cell membranes,red blood cells [1],binds to sterols and perforates cell membranes
methylprednisone,rejection of the transplanted tissue or organ,[2],reduce rejection of the transplanted tissue or organ
CC1\C=C/C=C\C=C\C=C\C=C\C=C\C=C\C(OC2OC(C)C(O)C(N)C2O)CC2OC(O)(CC(O)CC(O)CC(O)CC(O)CC(=O)CC(O)CC(=O)OC1C(C)CCC(O)CC(=O)c1ccc(N)cc1)CC(O)C2C(=O)O (centres unmarked) [vacidin A],binding with red blood cells and hemolysis,red blood cells [1],bind with red blood cells and cause hemolysis to occur
cyclosporin A,rejection of the transplanted tissue or organ,[2],reduce rejection of the transplanted tissue or organ
C=CC[C@@H]1/C=C(\C)C[C@H](C)C[C@H](OC)[C@H]2O[C@@](O)(C(=O)C(=O)N3CCCC[C@H]3C(=O)O[C@H](/C(C)=C/[C@@H]3CC[C@@H](O)[C@H](OC)C3)[C@H](C)[C@@H](O)CC1=O)[C@H](C)C[C@@H]2OC [FK-506],activation of T-lymphocytes,T-lymphocytes,inhibits the activation of T-lymphocytes
same,binding with FKBP in the erythrocytes,[3],bind reversibly
same,absorption and retention by peripheral blood mononuclear cells and erythrocytes,[4],absorbed and retained
same,rejection of the transplanted tissue or organ,[2],reduce rejection of the transplanted tissue or organ
COc1cccc2c1C(=O)c1c(O)c3c(c(O)c1C2=O)C[C@@](O)(C(C)=O)C[C@@H]3O[C@H]1C[C@H](N)[C@H](O)[C@H](C)O1 [Daunomycin],binding to red blood cells,red blood cells [5]; red blood cells first treated with Amphotericin B,will bind daunomycin
same,binding to red blood cells,red blood cells [5]; untreated red blood cells,will not bind to red blood cells
O=P1(N(CCCl)CCCl)NCCCO1 (centres unmarked) [cyclophosphamide],rejection of the transplanted tissue or organ,[2],reduce rejection of the transplanted tissue or organ
CO[C@H]1C[C@@H]2CC[C@@H](C)[C@@](O)(O2)C(=O)C(=O)N2CCCC[C@H]2C(=O)O[C@H]([C@H](C)C[C@@H]2CC[C@@H](O)[C@H](OC)C2)CC(=O)[C@H](C)/C=C(\C)[C@@H](O)[C@@H](OC)C(=O)[C@H](C)C[C@H](C)/C=C/C=C/C=C/1C [rapamycin],immune response in adjuvant arthritis,adjuvant arthritis,inhibits the immune response
same,binding with FKBP in formed blood elements (erythrocytes),FKBP,bind reversibly with the binding protein FKBP
same,transplant rejection,transplant rejection,inhibition of transplant rejection
same,antitumor activity,[6],antitumor activity
same,blood plasma ratio,[7]; rapamycin 482 ng/ml,1.1
same,blood plasma ratio,[7]; [14],12 ± 2
same,Kp,[7]; rapamycin 482 ng/ml,1.3
same,Kp,[7]; [14],23.7 ± 3.9
same,graft rejection,graft rejection,reduce graft rejection
same,"suppressive activity of Cyclosporin A in T-cell proliferation, IL-2 production and IL-2R expression",mouse T-cells,potentiates the suppressive activity of Cyclosporin A
same,immune response in experimental allergic encephalomyolitis,[8],inhibits the immune response
same,blood plasma ratio,[9],10 ± 6
same,humoral (IgE-like) antibodies,[10],prevents humoral (IgE-like) antibodies
same,hemolysis,erythrocytes,does not cause hemolysis
same,restenosis,[11],inhibits restenosis
same,blood plasma ratio,[12]; rapamycin 38 ng/ml,1.3
same,blood plasma ratio,[12]; rapamycin 200 ng/ml,0.8
same,Kp,[12]; rapamycin 38 ng/ml,1.7
same,Kp,[12]; rapamycin 200 ng/ml,0.5
same,blood plasma ratio,[13],12 ± 2
same,rejection of the transplanted tissue or organ,[2],reduce rejection of the transplanted tissue or organ
